# Patent publication US9034819B2, “Method of lowering cholesterol and triglycerides by administering exendins” (Amylin Pharmaceuticals, LLC, priority 2008, dated 2015)
# How the values were obtained:
# Format in all cases: in vivo, human
# fasting triglycerides = test: Fasting triglycerides, 30 week study in patients with Type 2 diabetes; conditions: decrease from baseline to week 30; SC; once weekly 2 mg or twice daily 10 μg
# Protocol: (§1) The pharmacokinetics of a long-acting release formulation of exenatide was evaluated in a study in patients with Type 2 diabetes. The study population consisted of individuals with type 2 diabetes treated with a stable regimen of oral diabetes medications or managed with diet modification and exercise. […] The 30 week study compared a 10 μg formulation of exenatide administered twice daily (BTD) by subcutaneous (SC) injection and a 2 mg formulation of exenatide administered once weekly by subcutaneous (SC) injection. The study was also conducted, inter alia, to examine the effects of such administration on the individual's total cholesterol, LDL-cholesterol, HDL-cholesterol, triglyceride levels, hemoglobin A1C, fasting postprandial blood glucose, and weight. […]
# (§2) Exenatide once weekly is a sustained-release formulation of exenatide (exendin-4) designed to provide exenatide release over a period ranging from 7 to 91 days. […] The vial containing the white to off-white dry powder (2.8 mg of exenatide once weekly) was stored frozen in a freezer with a recorded temperature at ≦−20±5° C. at the study site.
# (§3) Patients were monitored about every four weeks for body weight, vital signs (including blood pressure, heart rate, respiratory rate, and temperature), urinalysis, and adverse events. […]
# [1] = system: total cholesterol, LDL-cholesterol, HDL-cholesterol; test: Total, LDL- and HDL-cholesterol, 30 week study in patients with Type 2 diabetes; conditions: SC
# Protocol: (§4) The pharmacokinetics of a long-acting release formulation of exenatide was evaluated in a study in patients with Type 2 diabetes. The study population consisted of individuals with type 2 diabetes treated with a stable regimen of oral diabetes medications or managed with diet modification and exercise. […] The 30 week study compared a 10 μg formulation of exenatide administered twice daily (BTD) by subcutaneous (SC) injection and a 2 mg formulation of exenatide administered once weekly by subcutaneous (SC) injection. The study was also conducted, inter alia, to examine the effects of such administration on the individual's total cholesterol, LDL-cholesterol, HDL-cholesterol, triglyceride levels, hemoglobin A1C, fasting postprandial blood glucose, and weight.
# During the 3-day lead-in period, patients self-administered exenatide 5 μg SC, BID, within 15 minutes prior to meals in the morning and evening. The exenatide 5 μg SC, BID used in the 3-day lead-in period was a clear, colorless, sterile preserved solution for SC injection containing exenatide (exendin-4) in sodium acetate buffer, pH 4.5, 4.3% mannitol as an iso-osmolality modifier and 0.22% metacresol as a preservative. The strength of exenatide injection was 0.25 mg/mL of exendin-4.
# During the 30-week treatment period, patients received once weekly subcutaneous injections of a 2.0 mg dose pharmaceutical formulation containing 5% exenatide or patient received twice daily subcutaneous injections of exenatide at 10 μg per dose.
# as §2, §3
# [2] = Body weight, 30 week study in patients with Type 2 diabetes; conditions: weight loss from baseline to week 30, SC, once weekly 2 mg or twice daily 10 μg
# Protocol: as §1, §2, §3
# hemoglobin A1C = test: Hemoglobin A1C by HPLC, 30 week study in patients with Type 2 diabetes; conditions: decrease from baseline to week 30; SC; once weekly 2 mg or twice daily 10 μg
# Protocol: as §1, §2
# Plasma exenatide was quantified by a validated Enzyme-Linked Immunosorbent Assay (ELISA) at Millipore (Billerica, Mass.). […] Glycosylated hemoglobin was quantitated by Quintiles Laboratories (Smyrna, Ga.) using high-performance liquid chromatography. […]
# blood glucose = test: Fasting postprandial blood glucose, 30 week study in patients with Type 2 diabetes; conditions: decrease from baseline to week 30; SC; once weekly 2 mg or twice daily 10 μg
# Protocol: as §4
# During the 3-day lead-in period, patients self-administered exenatide 5 μg SC, BID, within 15 minutes prior to meals in the morning and evening. […]
# as §2
# [3] = decrease from baseline to week 30, once weekly 2 mg or twice daily 10 μg
substance,measurement,setting,value
exenatide BID: 10 μg formulation of exenatide (exendin-4) administered twice daily by subcutaneous injection,fasting triglycerides decreased by an average of,fasting triglycerides,22 mg/dL
same,HDL-cholesterol decreased by an average of,[1]; [3],1.3 mg/dL
same,total cholesterol decreased by an average of,[1]; [3],3.8 mg/dL
same,LDL-cholesterol increased by an average of,"[1]; increase from baseline to week 30, twice daily 10 μg",1.2 mg/dL
same,body weight decreased by an average of (weight loss),[2],about 3.6 kg
same,body weight decreased by an average of (weight loss),[2]; listed as exenatide twice daily,3.6 kg
same,HbA1C decreased by an average of,hemoglobin A1C,1.5%
same,fasting postprandial blood glucose decreased by an average of,blood glucose,25 mg/dL
